Experimental data taken from PubChem BioAssay (NCI).
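These data come from cells grown in 96-well plates and exposed to compound for 48 hours at five concentrations. Definition used: TGI = concentration required for complete inhibition of growth.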

Legend:
Experiment in all cases: growth of human tumour cells (NCI), 48 h
SK-OV-3 ovarian = system: SK-OV-3 ovarian
COLO 205 colon = system: COLO 205 colon
TK-10 renal = system: TK-10 renal
BT-549 breast = system: BT-549 breast
NCI-H226 lung = system: NCI-H226 lung
SF-295 CNS = system: SF-295 CNS
MCF7 breast = system: MCF7 breast
IGROV1 ovarian = system: IGROV1 ovarian
A498 renal = system: A498 renal
ACHN renal = system: ACHN renal

CC(C)(C)OC(=O)N1CCC2(CC1)C(=O)NCN2c1ccccc1
TGI (SK-OV-3 ovarian): > 100 µM
TGI (COLO 205 colon): > 100 µM
TGI (TK-10 renal): > 100 µM
TGI (BT-549 breast): > 100 µM
TGI (NCI-H226 lung): > 100 µM
TGI (SF-295 CNS): > 100 µM
TGI (MCF7 breast): > 100 µM
TGI (IGROV1 ovarian): > 100 µM
TGI (A498 renal): > 100 µM
TGI (ACHN renal): > 100 µM

C/C(=C\C(=O)O)C(=O)N(C)c1ccccc1I
TGI (SK-OV-3 ovarian): > 100 µM
TGI (COLO 205 colon): > 100 µM
TGI (NCI-H226 lung): > 100 µM
TGI (SF-295 CNS): > 100 µM
TGI (MCF7 breast): > 100 µM
TGI (A498 renal): > 100 µM
TGI (ACHN renal): > 100 µM

O=[N+]([O-])/C=C/c1cn(CCCCCCCCn2cc(/C=C/[N+](=O)[O-])c3ccccc32)c2ccccc12
TGI (SK-OV-3 ovarian): > 10 µM
TGI (COLO 205 colon): > 10 µM
TGI (TK-10 renal): > 10 µM
TGI (NCI-H226 lung): > 10 µM
TGI (SF-295 CNS): > 10 µM
TGI (IGROV1 ovarian): > 10 µM
TGI (A498 renal): > 10 µM
TGI (ACHN renal): > 10 µM

CC1=NN(c2cc(Cl)c(S(=O)(=O)O)cc2Cl)C2(C1)C(Cl)C(=O)N2c1nc2ccccc2s1 (stereo not given)
TGI (COLO 205 colon): > 100 µM
TGI (TK-10 renal): > 100 µM
TGI (BT-549 breast): > 100 µM
TGI (NCI-H226 lung): > 100 µM
TGI (MCF7 breast): > 100 µM
TGI (IGROV1 ovarian): > 100 µM
TGI (A498 renal): > 100 µM
TGI (ACHN renal): > 100 µM

COC(=O)[C@]1(c2cc3ccccc3[nH]2)CC2CNC1C1OC(C)(C)OC21 (stereo not given in full)
TGI (SK-OV-3 ovarian): > 100 µM
TGI (COLO 205 colon): > 100 µM
TGI (TK-10 renal): > 100 µM
TGI (BT-549 breast): > 100 µM
TGI (NCI-H226 lung): > 100 µM
TGI (SF-295 CNS): > 100 µM
TGI (MCF7 breast): > 100 µM
TGI (IGROV1 ovarian): > 100 µM
TGI (ACHN renal): > 100 µM

O=c1[nH]c(NCCCCCO)nc2nc[nH]c12
TGI (COLO 205 colon): > 100 µM
TGI (TK-10 renal): > 100 µM
TGI (BT-549 breast): > 100 µM
TGI (NCI-H226 lung): > 100 µM
TGI (IGROV1 ovarian): > 100 µM
TGI (A498 renal): > 100 µM
TGI (ACHN renal): > 100 µM

CN(C)c1ccc(/C=C2\N=C(c3ccccc3)N(c3nc4ccc(Sc5ccccc5)cc4[nH]3)C2=O)cc1
TGI (SK-OV-3 ovarian): 49.2 µM
TGI (COLO 205 colon): 45.9 µM
TGI (TK-10 renal): 81.3 µM
TGI (BT-549 breast): > 100 µM
TGI (SF-295 CNS): 72.2 µM
TGI (MCF7 breast): > 100 µM
TGI (IGROV1 ovarian): > 100 µM
TGI (A498 renal): > 100 µM
TGI (ACHN renal): > 100 µM

CCOC(=O)NCC(=O)NCC(=O)NCC(N)=O
TGI (SK-OV-3 ovarian): > 100 µM
TGI (COLO 205 colon): > 100 µM
TGI (TK-10 renal): > 100 µM
TGI (BT-549 breast): > 100 µM
TGI (NCI-H226 lung): > 100 µM
TGI (SF-295 CNS): > 100 µM
TGI (MCF7 breast): > 100 µM
TGI (IGROV1 ovarian): > 100 µM
TGI (ACHN renal): > 100 µM

N#CC(c1cc(Cl)ncn1)c1nc2cc(C(F)(F)F)ccc2s1 (stereo not given)
TGI (SK-OV-3 ovarian): 53.7 µM
TGI (COLO 205 colon): 10.8 µM
TGI (TK-10 renal): > 100 µM
TGI (BT-549 breast): 9.5 µM
TGI (NCI-H226 lung): 92 µM
TGI (SF-295 CNS): 29.2 µM
TGI (IGROV1 ovarian): 20.3 µM
TGI (A498 renal): 56.2 µM
TGI (ACHN renal): 59.6 µM

Cc1c(-c2ccccc2)oc(=O)c2ccccc12
TGI (SK-OV-3 ovarian): 54.4 µM
TGI (COLO 205 colon): 33.7 µM
TGI (TK-10 renal): 60.7 µM
TGI (BT-549 breast): 39.2 µM
TGI (NCI-H226 lung): 40.3 µM
TGI (SF-295 CNS): 40.2 µM
TGI (MCF7 breast): > 100 µM
TGI (IGROV1 ovarian): 46.6 µM
TGI (ACHN renal): 98.2 µM

CC1=NN(C(=O)CC(=O)Nc2cccc(C)c2)C(=O)C1N=Nc1ccc(C(=O)O)cc1 (stereo not given)
TGI (COLO 205 colon): > 100 µM
TGI (TK-10 renal): > 100 µM
TGI (BT-549 breast): > 100 µM
TGI (SF-295 CNS): > 100 µM
TGI (MCF7 breast): > 100 µM
TGI (IGROV1 ovarian): > 100 µM
TGI (A498 renal): > 100 µM
TGI (ACHN renal): > 100 µM

CC(C)C(Nc1c2ccccc2[n+](C)c2ccccc12)C(=O)O (stereo not given)
TGI (SK-OV-3 ovarian): > 100 µM
TGI (COLO 205 colon): > 100 µM
TGI (TK-10 renal): > 100 µM
TGI (NCI-H226 lung): > 100 µM
TGI (SF-295 CNS): > 100 µM
TGI (IGROV1 ovarian): > 100 µM
TGI (A498 renal): > 100 µM
TGI (ACHN renal): > 100 µM

COC1=C(OC)C(=O)C(Cc2c(-c3ccccc3)nc3sc(Cl)cn23)=C(C)C1=O
TGI (SK-OV-3 ovarian): 37.8 µM
TGI (COLO 205 colon): 33.5 µM
TGI (TK-10 renal): 45 µM
TGI (BT-549 breast): 30.2 µM
TGI (SF-295 CNS): 34.3 µM
TGI (MCF7 breast): 52.4 µM
TGI (IGROV1 ovarian): 29.9 µM
TGI (A498 renal): 47.2 µM
TGI (ACHN renal): 30.7 µM

O=c1ccc(=O)c2c1c1[nH]c3ccccc3c1c1c(=O)c3ccccc3c(=O)c21
TGI (SK-OV-3 ovarian): > 10 µM
TGI (COLO 205 colon): > 10 µM
TGI (TK-10 renal): > 10 µM
TGI (NCI-H226 lung): > 10 µM
TGI (SF-295 CNS): > 10 µM
TGI (IGROV1 ovarian): > 10 µM
TGI (A498 renal): > 10 µM
TGI (ACHN renal): > 10 µM

N#Cc1cc2c(n(C3OC(CO)C(O)C(O)C3O)c1=S)CCC2 (stereo not given)
TGI (COLO 205 colon): > 100 µM
TGI (TK-10 renal): > 100 µM
TGI (BT-549 breast): > 100 µM
TGI (NCI-H226 lung): > 100 µM
TGI (SF-295 CNS): > 100 µM
TGI (MCF7 breast): > 100 µM
TGI (IGROV1 ovarian): > 100 µM
TGI (A498 renal): > 100 µM
TGI (ACHN renal): > 100 µM

CCOC(=O)CC1(N)CC2c3ccccc3OC(=O)C2C(=O)N1 (stereo not given)
TGI (COLO 205 colon): > 100 µM
TGI (TK-10 renal): > 100 µM
TGI (BT-549 breast): > 100 µM
TGI (NCI-H226 lung): > 100 µM
TGI (IGROV1 ovarian): > 100 µM
TGI (A498 renal): > 100 µM
TGI (ACHN renal): > 100 µM

COc1cc(COC(=O)N(C)[C@@H](Cc2ccccc2)C(=O)O)c([N+](=O)[O-])cc1OC
TGI (SK-OV-3 ovarian): > 100 µM
TGI (BT-549 breast): > 100 µM
TGI (NCI-H226 lung): > 100 µM
TGI (SF-295 CNS): > 100 µM
TGI (MCF7 breast): > 100 µM
TGI (IGROV1 ovarian): > 100 µM
TGI (ACHN renal): > 100 µM

CN(CC(=O)O)c1ncc2c(n1)-c1ccccc1CC2
TGI (SK-OV-3 ovarian): > 100 µM
TGI (COLO 205 colon): > 100 µM
TGI (TK-10 renal): > 100 µM
TGI (NCI-H226 lung): > 100 µM
TGI (SF-295 CNS): > 100 µM
TGI (MCF7 breast): > 100 µM
TGI (IGROV1 ovarian): > 100 µM
TGI (A498 renal): > 100 µM
TGI (ACHN renal): > 100 µM
